From patent US7074447B2 (Laboratories Miret, S.A., priority 2001, dated 2006) come the findings set out here.

Structures are written as SMILES.

Test [1] concerns Bacillus subtilis (CECT 356). The test is described as follows: minimum inhibition concentration and Kull synergy index of LAE / potassium sorbate. Type of test: cell-based. The note with it: for SI, synergy index: <1 synergism, 1 addition, >1 antagonism. As to the method:
The invention is now explained by a number of examples. In these examples LAE and sorbate alone and in a number of different combinations have been investigated against a number of bacterial preparations. For the analysis usually an internal method was used. Conditions and medium were Mueller Hinton broth (pH 7.4) or (pH 5.0) for bacteria, Sabouraud broth (pH 5.8) for yeast and Sabouraud medium for moulds. […] The interaction of the two components of the antimicrobial mixture is calculated according to the method described by Kull et al. (Kull […]. and Mayer R. L., Applied Microbiology, 1961; 6:538-541). According to this method the so-called synergy index is calculated according to the following formula: Synergy index […]. […] All indicated symbols indicate a particular concentration leading to a particular end point, in this case the inhibition of growth of Bacillus subtilis, so that the selected end point is in fact the minimal inhibitory concentration (mic).

For test [2], the system named is Gram-Positive Bacteria, Gram-Negative Bacteria, Moulds and Yeasts. As to the kind of experiment: activity of LAE against listed microorganisms. The settings on record: strains listed in b7. In kind it is cell-based. An excerpt:
• Arthrobacter oxydans ATCC 8010 • Bacillus cereus var mycoide ATCC 11778 • Bacillus subtilis ATCC 6633 • Bacillus megaterium CECT 44 • Clostridium perfringens ATCC 77454 • Clostridium perfringens CECT 486 • Listeria monocytogenes ATCC 7644 • Staphylococcus aureus ATCC 6538 • Micrococcus luteus ATCC 9631 • Lactobacillus delbrueckii ssp lactis CECT 372 Gram-Negative Bacteria • Alcaligenes faecalis ATCC 8750 • Bordetella bronchiseptica ATCC 4617 • Citrobacter freundii ATCC 22636 • Citrobacter intermedium CECT 401 • Enterobacter aerogenes CECT 689 • Escherichia coli ATCC 8739 • Escherichia coli 0157H7 • Klebsiella pneumoniae var pneumoniae CECT 178 • Proteus mirabilis CECT 170 • Pseudomonas aeruginosa ATCC 9027 • Salmonella typhimurium ATCC16028 • Serratia marcenses CECT 274 • Mycobacterium phlei ATCC 41423 Moulds and Yeasts • Aspergillus niger ATCC14604 • Aureobasidium pullulans ATCC 9348 • Cladosporium cladosporioides ATCC 16022 • Gliocadium virens ATCC 4645 • Chaetonium globosum ATCC 6205 • Penicillium chrysogenum CECT 2802 • Penicillium funiculosum CECT 2914 • Penicillium camemberti CECT 2267 • Candida albicans ATCC 10231 • Rhodotorula rubra CECT 1158 • Saccharomyces cerevisiae ATCC 9763

The mark [3] stands for this setting: pH 7.4, propylene glycol solutions.

`CCCCCCCCCCCC(=O)N[C@@H](CCCNC(=N)N)C(=O)OCC.Cl` [LAE, L-arginine, N^α-lauroyl-ethylester monohydrochloride]: in test [1] (pH 5.0), the “QLAE, minimum inhibition concentration of LAE as single antimicrobial” value amounted to 29.3; the “Qlae, minimum inhibition concentration of LAE in the mixture” value was determined as 29.3; the Qlae/QLAE is recorded as 1.00; the “Qs, minimum inhibition concentration of potassium sorbate in the mixture” value stood at 0. Also, in test [1] (pH 5.0), the Qs/QS was 0.00 and the “SI, synergy index” value was 1.00. Further, in test [1] (setting [3]), the “QLAE, minimum inhibition concentration of LAE as single antimicrobial” value is given as 12.8; the “Qlae, minimum inhibition concentration of LAE in the mixture” value came out at 12.8; the Qlae/QLAE was found to be 1.00; the “Qs, minimum inhibition concentration of potassium sorbate in the mixture” value turned out to be 0. Moreover, in test [1] (setting [3]), the Qs/QS came to 0.00 and the “SI, synergy index” value is 1.00. In addition, the “activity against the listed microorganisms” value in test [2] is “activity”.
